Measurements reported in ChEMBL document CHEMBL5260810, “Inhibition of bromodomain-containing protein 9 for the prevention of epigenetically-defined drug resistance” (Bioorg Med Chem Lett, 2017).
Converted amounts (≈) assume the structure as drawn. The source made the active and inactive calls. No cut-off for these calls is given here.

Assays:
769-P = test: Cytotoxicity against human 769-P cells measured after 3 days; format: functional, cell-based; settings: 72 h
[1] = Cytotoxicity against human COV362.4 cells measured after 3 days; format: functional, cell-based; settings: COV362.4, 72 h
[2] = Cytotoxicity against human Karpas-620 cells measured after 3 days; format: functional, cell-based; settings: Karpas-620, 72 h
MCF7 = test: Cytotoxicity against human MCF-7-SER cells measured after 8 days; format: functional, cell-based; settings: MCF7, 192 h
DOV13 = test: Cytotoxicity against human DOV13 cells measured after 3 days; format: functional, cell-based; settings: DOV13, 72 h
[3] = Cytotoxicity against human COV413B cells measured after 3 days; format: functional, cell-based; settings: 72 h
CWR22R = test: Cytotoxicity against human 22Rv1 cells after 8 days; format: functional, cell-based; settings: 22Rv1, 192 h
PC-9 = test: Cytotoxicity against human PC-9 cells assessed as reduction in drug tolerant population at 2 uM supplemented with fresh medium containing compound every 3 days for 9 days in presence of erlotinib by Beckman Coulter counting method relative to control; format: functional; design: scale not given: the % may be the effect or the level left; settings: time 9 day
MDA-MB-175-VII = test: Cytotoxicity against human MDA-MB-175-VII cells measured after 3 days; format: functional, cell-based; settings: 72 h
[4] = Cytotoxicity against human EFM-192C cells measured after 3 days; format: functional, cell-based; settings: 72 h
DOHH-2 = test: Cytotoxicity against human DOHH-2 cells measured after 3 days; format: functional, cell-based; settings: DOHH-2, 72 h
[5] = Cytotoxicity against human SW527 cells measured after 3 days; format: functional, cell-based; settings: SW527, 72 h
[6] = Cytotoxicity against human JHH7 cells measured after 3 days; format: functional, cell-based; settings: JHH7, 72 h
[7] = Cytotoxicity against human HCC3153 cells measured after 8 days; format: functional, cell-based; settings: HCC3153, 192 h
[8] = Cytotoxicity against human NCI-H1568 cells after 8 days; format: functional, cell-based; settings: NCI-H1568, 192 h
OVCAR-4 = test: Cytotoxicity against human OVCAR-4 cells measured after 3 days; format: functional, cell-based; settings: OVCAR-4, 72 h
SNU-423 = test: Cytotoxicity against human SNU-423 cells measured after 3 days; format: functional, cell-based; settings: SNU-423, 72 h
CA46 = test: Cytotoxicity against human CA46 cells measured after 3 days; format: functional, cell-based; settings: CA46, 72 h
SCC-3 = test: Cytotoxicity against human SCC-3 cells measured after 3 days; format: functional, cell-based; settings: SCC-3, 72 h
[9] = Cytotoxicity against human HS-Sultan cells measured after 3 days; format: functional, cell-based; settings: 72 h
[10] = Cytotoxicity against human OVCA432 cells measured after 3 days; format: functional, cell-based; settings: OVCA432, 72 h
[11] = Cytotoxicity against human NCE-G 112 cells measured after 3 days; format: functional, cell-based; settings: NCE-G 112, 72 h
OVCAR-5 = test: Cytotoxicity against human OVCAR-5 cells measured after 3 days; format: functional, cell-based; settings: OVCAR-5, 72 h
[12] = Cytotoxicity against human NCE-G 59 cells measured after 3 days; format: functional, cell-based; settings: NCE-G 59, 72 h
EJM = test: Cytotoxicity against human EJM cells measured after 3 days; format: functional, cell-based; settings: 72 h
NCI-H929 = test: Cytotoxicity against human NCI-H929 cells measured after 3 days; format: functional, cell-based; settings: NCI-H929, 72 h
Calu-1 = test: Cytotoxicity against human Calu-1 cells after 8 days; format: functional, cell-based; settings: Calu-1, 192 h
[13] = Cytotoxicity against human KHM-1B cells measured after 3 days; format: functional, cell-based; settings: 72 h
[14] = Kinetic solubility of the compound; format: physicochemical; settings: read-out: Kinetic_solubility
TOV21G = test: Cytotoxicity against human TOV-21G cells measured after 3 days; format: functional, cell-based; settings: 72 h
[15] = Cytotoxicity against human COV434 cells measured after 3 days; format: functional, cell-based; settings: COV434, 72 h
HepG2 = test: Cytotoxicity against human HepG2 cells measured after 3 days; format: functional, cell-based; settings: HepG2, 72 h
SU-DHL-1 = test: Cytotoxicity against human SU-DHL-1 cells measured after 3 days; format: functional, cell-based; settings: SU-DHL-1, 72 h
[16] = Cytotoxicity against human OVSAHO cells measured after 3 days; format: functional, cell-based; settings: 72 h
Daudi = test: Cytotoxicity against human Daudi cells measured after 3 days; format: functional, cell-based; settings: 72 h
MOLM-13 = test: Cytotoxicity against human MOLM-13 cells measured after 3 days; format: functional, cell-based; settings: MOLM-13, 72 h
[17] = Cytotoxicity against human COV504 cells measured after 3 days; format: functional, cell-based; settings: COV504, 72 h
EB2 = test: Cytotoxicity against human EB2 cells measured after 3 days; format: functional, cell-based; settings: EB2, 72 h
HEL = test: Cytotoxicity against human HEL cells measured after 3 days; format: functional, cell-based; settings: 72 h
[18] = Cytotoxicity against human YMB-1 cells measured after 3 days; format: functional, cell-based; settings: YMB-1, 72 h
[19] = Cytotoxicity against human MOLM16 cells measured after 3 days; format: functional, cell-based, MOLM-16; settings: MOLM16, 72 h
T98G = test: Cytotoxicity against human T98G cells measured after 3 days; format: functional, cell-based; settings: 72 h
[20] = Cytotoxicity against human ONCO-DG-1 cells measured after 3 days; format: functional, cell-based; settings: ONCO-DG-1, 72 h
BT-474 [21] = test: Cytotoxicity against human BT-474 cells measured after 3 days; format: functional, cell-based; settings: BT-474, 72 h
NCI-H1944 = test: Cytotoxicity against human NCI-H1944 cells measured after 3 days; format: functional, cell-based; settings: NCI-H1944, 72 h
[22] = Cytotoxicity against human OCI-M2 cells measured after 3 days; format: functional, cell-based; settings: OCI-M2, 72 h
SNU-182 = test: Cytotoxicity against human SNU-182 cells measured after 3 days; format: functional, cell-based; settings: SNU-182, 72 h
786-0 = test: Cytotoxicity against human 786-0 cells measured after 3 days; format: functional, cell-based; settings: 786-0, 72 h
SK-OV-3 = test: Cytotoxicity against human SK-OV-3 cells measured after 3 days; format: functional, cell-based; settings: SK-OV-3, 72 h
SK-BR-3 = test: Cytotoxicity against human SK-BR-3 cells measured after 3 days; format: functional, cell-based; settings: SK-BR-3, 72 h
BT-20 = test: Cytotoxicity against human BT-20 cells measured after 3 days; format: functional, cell-based; settings: BT-20, 72 h
Capan-2 = test: Antiproliferative activity against human Capan-2 cells assessed as reduction in colony formation up to 20 uM supplemented with fresh medium containing compound every 3 days for 9 days by MTT staining based clonogenic assay; format: functional, cell-based; settings: time 9.0 day
A549 = test: Antiproliferative activity against human A549 cells assessed as reduction in colony formation up to 20 uM supplemented with fresh medium containing compound every 3 days for 9 days by MTT staining based clonogenic assay; format: functional, cell-based; settings: time 9.0 day
HPAC = test: Antiproliferative activity against HPAC assessed as reduction in colony formation upto 20 uM supplemented with fresh medium containing compound every 3 days for 9 days by MTT staining based clonogenic assay; format: functional, cell-based; settings: Homo sapiens, time 9.0 day
BT-474 [23] = test: Antiproliferative activity against human BT-474 cells assessed as reduction in colony formation up to 20 uM supplemented with fresh medium containing compound every 3 days for 9 days by MTT staining based clonogenic assay; format: functional, cell-based; settings: time 9.0 day
BT-549 = test: Antiproliferative activity against human BT-549 cells assessed as reduction in colony formation up to 20 uM supplemented with fresh medium containing compound every 3 days for 9 days by MTT staining based clonogenic assay; format: functional, cell-based; settings: time 9.0 day
GABA-B receptor = GABA-B receptor (Homo sapiens, UniProt O75899+Q9UBS5); test: Inhibition of human GABA-B receptor at 10 uM relative to control; format: protein-complex assay
GABA-B receptor, sequence (Q9UBS5 whole entry): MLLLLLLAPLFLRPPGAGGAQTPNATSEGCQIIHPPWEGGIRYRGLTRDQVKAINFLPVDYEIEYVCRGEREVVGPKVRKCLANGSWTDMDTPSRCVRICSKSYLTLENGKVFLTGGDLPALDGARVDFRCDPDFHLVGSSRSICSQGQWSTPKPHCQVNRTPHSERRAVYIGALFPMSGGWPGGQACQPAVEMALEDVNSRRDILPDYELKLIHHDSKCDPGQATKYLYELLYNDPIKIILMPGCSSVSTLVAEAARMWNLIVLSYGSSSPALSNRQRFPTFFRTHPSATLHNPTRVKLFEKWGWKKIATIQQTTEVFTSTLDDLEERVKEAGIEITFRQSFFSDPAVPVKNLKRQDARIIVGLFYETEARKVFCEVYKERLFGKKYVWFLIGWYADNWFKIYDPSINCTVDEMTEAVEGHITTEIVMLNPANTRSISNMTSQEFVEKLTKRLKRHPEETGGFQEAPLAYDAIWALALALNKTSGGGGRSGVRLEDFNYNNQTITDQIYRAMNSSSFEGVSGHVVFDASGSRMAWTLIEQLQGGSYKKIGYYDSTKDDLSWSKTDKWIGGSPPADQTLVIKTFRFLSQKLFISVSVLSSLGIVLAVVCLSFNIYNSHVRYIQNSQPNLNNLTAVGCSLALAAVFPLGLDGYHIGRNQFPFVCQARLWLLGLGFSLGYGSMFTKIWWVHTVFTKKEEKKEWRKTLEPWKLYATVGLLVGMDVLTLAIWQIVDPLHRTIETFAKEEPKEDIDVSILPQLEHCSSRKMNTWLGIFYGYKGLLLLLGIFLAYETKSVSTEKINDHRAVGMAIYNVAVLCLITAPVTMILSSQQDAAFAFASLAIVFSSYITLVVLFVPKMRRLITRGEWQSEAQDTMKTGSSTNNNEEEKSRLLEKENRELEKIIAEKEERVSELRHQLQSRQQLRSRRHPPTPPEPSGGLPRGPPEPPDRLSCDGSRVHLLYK
GABA-B receptor, sequence (O75899 whole entry): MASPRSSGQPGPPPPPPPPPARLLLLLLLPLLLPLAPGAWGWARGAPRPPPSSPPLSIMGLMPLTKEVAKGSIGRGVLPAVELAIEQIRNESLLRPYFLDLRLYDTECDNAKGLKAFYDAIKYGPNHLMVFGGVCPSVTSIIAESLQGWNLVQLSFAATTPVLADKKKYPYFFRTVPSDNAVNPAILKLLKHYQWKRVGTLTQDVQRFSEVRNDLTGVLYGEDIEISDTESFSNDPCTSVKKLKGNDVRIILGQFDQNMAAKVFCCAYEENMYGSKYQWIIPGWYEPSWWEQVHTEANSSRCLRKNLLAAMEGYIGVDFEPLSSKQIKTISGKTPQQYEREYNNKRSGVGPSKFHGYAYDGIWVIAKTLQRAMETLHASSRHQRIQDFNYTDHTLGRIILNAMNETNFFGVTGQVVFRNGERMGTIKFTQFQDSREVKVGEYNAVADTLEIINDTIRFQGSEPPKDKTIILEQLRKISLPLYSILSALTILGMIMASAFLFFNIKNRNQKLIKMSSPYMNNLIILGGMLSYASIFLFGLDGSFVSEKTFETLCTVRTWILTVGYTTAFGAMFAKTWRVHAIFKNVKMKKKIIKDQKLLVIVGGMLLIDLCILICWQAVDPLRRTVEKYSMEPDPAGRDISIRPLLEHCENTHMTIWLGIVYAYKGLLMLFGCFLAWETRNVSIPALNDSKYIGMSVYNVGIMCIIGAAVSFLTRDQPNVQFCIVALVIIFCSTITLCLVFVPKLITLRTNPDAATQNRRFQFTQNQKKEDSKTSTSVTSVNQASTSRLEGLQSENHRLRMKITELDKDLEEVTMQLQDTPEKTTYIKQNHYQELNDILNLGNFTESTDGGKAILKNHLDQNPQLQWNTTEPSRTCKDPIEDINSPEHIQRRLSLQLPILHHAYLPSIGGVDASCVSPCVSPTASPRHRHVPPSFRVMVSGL

## C/C=C/Cn1cc(-c2cc(OC)c(C(=O)N3CCOCC3)cc2OC)c2cc(C)[nH]c2c1=O
769-P
  IC50: 5 µM
[1]
  IC50: 5 µM
[2]
  IC50: 5 µM
MCF7
  IC50: 2 µM
DOV13
  IC50: 5 µM
[3]
  IC50: 5 µM
CWR22R
  IC50: 2 µM
PC-9
  Activity: >60%
MDA-MB-175-VII
  IC50: 5 µM
[4]
  IC50: 5 µM
DOHH-2
  IC50: 5 µM
[5]
  IC50: 5 µM
[6]
  IC50: 5 µM
[7]
  IC50: 2 µM
[8]
  IC50: 2 µM
OVCAR-4
  IC50: 5 µM
SNU-423
  IC50: 5 µM
CA46
  IC50: 5 µM
SCC-3
  IC50: 5 µM
[9]
  IC50: 5 µM
[10]
  IC50: 5 µM
[11]
  IC50: 5 µM
OVCAR-5
  IC50: 5 µM
[12]
  IC50: 5 µM
EJM
  IC50: 5 µM
NCI-H929
  IC50: 5 µM
Calu-1
  IC50: 2 µM
[13]
  IC50: 5 µM
[14]
  solubility kinetic: 135 µM (≈ 61 µg/mL)
TOV21G
  IC50: 5 µM
[15]
  IC50: 5 µM
HepG2
  IC50: 5 µM
SU-DHL-1
  IC50: 5 µM
[16]
  IC50: 5 µM
Daudi
  IC50: 5 µM
MOLM-13
  IC50: 5 µM
[17]
  IC50: 5 µM
EB2
  IC50: 5 µM
HEL
  IC50: 5 µM
[18]
  IC50: 5 µM
[19]
  IC50: 5 µM
T98G
  IC50: 5 µM
[20]
  IC50: 5 µM
BT-474 [21]
  IC50: 5 µM
NCI-H1944
  IC50: 5 µM
[22]
  IC50: 5 µM
SNU-182
  IC50: 5 µM
786-0
  IC50: 5 µM
SK-OV-3
  IC50: 5 µM
SK-BR-3
  IC50: 5 µM
BT-20
  IC50: 5 µM

## C/C=C/Cn1cc(-c2ccc(C(C)(C)O)cc2OC)c2cc[nH]c2c1=O
Capan-2
  Activity: inactive
A549
  Activity: inactive
HPAC
  Activity: inactive
BT-474 [23]
  Activity: inactive
BT-549
  Activity: inactive
GABA-B receptor
  IC50: 4 µM
